In US4794122A, “Novel benzimidazolyl-thiomethyl-benzothiazoles” (Uclaf; Roussel, priority 1986, dated 1988) one finds IC50 data, which are given here for three molecules.

The target of the test is T1, 5-lipoxygenase (Rattus norvegicus, UniProt P12527).
T1 construct: prelabelled rat peritoneal neutrophils; endogenous in cells; host or cells: rat peritoneal neutrophils
T1 sequence (P12527 1-673): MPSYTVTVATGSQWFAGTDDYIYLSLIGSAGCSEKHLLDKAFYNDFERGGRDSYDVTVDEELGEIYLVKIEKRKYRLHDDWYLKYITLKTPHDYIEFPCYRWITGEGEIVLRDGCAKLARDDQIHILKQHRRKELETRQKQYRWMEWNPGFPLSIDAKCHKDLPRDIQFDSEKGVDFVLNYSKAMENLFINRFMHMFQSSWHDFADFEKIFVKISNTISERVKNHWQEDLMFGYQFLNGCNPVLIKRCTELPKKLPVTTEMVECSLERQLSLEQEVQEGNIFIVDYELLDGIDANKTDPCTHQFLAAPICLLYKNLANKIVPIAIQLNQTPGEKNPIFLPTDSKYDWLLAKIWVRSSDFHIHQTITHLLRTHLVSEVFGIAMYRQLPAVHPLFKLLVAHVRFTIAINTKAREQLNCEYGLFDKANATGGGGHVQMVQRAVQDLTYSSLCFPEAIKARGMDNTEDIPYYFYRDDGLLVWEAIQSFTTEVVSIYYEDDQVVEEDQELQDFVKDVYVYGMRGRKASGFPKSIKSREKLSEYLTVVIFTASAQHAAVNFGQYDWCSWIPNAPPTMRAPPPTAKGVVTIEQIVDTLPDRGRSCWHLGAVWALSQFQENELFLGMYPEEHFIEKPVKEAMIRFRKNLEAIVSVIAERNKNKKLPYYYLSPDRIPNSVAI
The experiment in a line: Inhibition of Ca++ ionophore (A23187)-induced release of 5-lipoxygenase products (leukotriene B4 and 5-HETE) from [14C]-arachidonic acid prelabelled rat peritoneal neutrophils. The note with it: A23187-induced release of leukotriene B4 and 5-HETE, determined graphically from dose response curves, read-out: micro molecular concentration of the compounds causing a 50% inhibition of the control response for 5-lipoxygenase. The class given is cell-based. Here is the method:
Inhibition of Ca^++ ionophore (A23187)-induced release of 5-lipoxygenase products (leukotriene B4 and 5-HETE) from [^14 C]-arachidonic acid prelabelled rat peritoneal neutrophils was determined by a modification of the method of Ahnfelt-Ronne et al [Biochemical Pharmacology, Vol. 31, (1982), No. 16, p. 2619-2624].
On to `Clc1ccc2[nH]c(SCc3nc4ccccc4s3)nc2c1` [Example 2, 2-(5-chloro-1H-benzimidazol-2-yl-thiomethyl)benzothiazole], for which the IC50 stood at 590 nM.
As for `c1ccc2[nH]c(SCc3nc4ccccc4s3)nc2c1` [Example 1, 2-(1H-benzimidazol-2-yl-thiomethyl)-benzothiazole], the figure is 3500 nM; as for `Clc1cc2nc(SCc3nc4ccccc4s3)[nH]c2cc1Cl` [Example 3, 2-(5,6-dichloro-1H-benzimidazol-2-yl-thiomethyl)benzothiazole], 230 nM.
